Laboratory results: US20050065062A1, “Method of formulating a pharmaceutical composition” (3M Innovative Properties Company, priority 2003, published 2005)

Legend:
[1] = Franz diffusion cell, membrane diffusion across poly(dimethylsiloxane) membrane
[2] = Franz diffusion cell, membrane diffusion across hairless mouse skin; assay type: in vitro ADME
Experimental: Diffusion of the compounds through hairless mouse skin into phosphate buffer in a Franz cell was carried out and measured as described in Example 1, with Sudan I being used in place of Fat Brown RR.

[3] = saturated solution in alpha-terpineol, 0 hours
[4] = saturated solution in alpha-terpineol, 24 hours
[5] = saturated solution in isostearic acid, 0 hours
[6] = saturated solution in isostearic acid, 24 hours
[7] = saturated solution in propylene glycol, 0 hours
[8] = saturated solution in propylene glycol, 24 hours
[9] = saturated solution in tetraglycol, 0 hours
[10] = saturated solution in tetraglycol, 24 hours

CCN(CCO)c1ccc(N=Nc2ccc([N+](=O)[O-])cc2)cc1 [Disperse Red 1]
relative order for membrane diffusion rate ([1]; ranking of excipients): alpha-terpineol>isostearic acid>tetraglycol | CUMULATIVE AMOUNT OF COMPOUND DIFFUSED ACROSS SKIN [1, 3]: 0 μg/10 mL | CUMULATIVE AMOUNT OF COMPOUND DIFFUSED ACROSS SKIN [1, 4]: 11 μg/10 mL | CUMULATIVE AMOUNT OF COMPOUND DIFFUSED ACROSS SKIN ([1]; saturated solution in alpha-terpineol, 48 hours): 25 μg/10 mL | CUMULATIVE AMOUNT OF COMPOUND DIFFUSED ACROSS SKIN ([1]; saturated solution in alpha-terpineol, 72 hours): 45 μg/10 mL | CUMULATIVE AMOUNT OF COMPOUND DIFFUSED ACROSS SKIN [1, 5]: 0 μg/10 mL | CUMULATIVE AMOUNT OF COMPOUND DIFFUSED ACROSS SKIN [1, 6]: 3 μg/10 mL | CUMULATIVE AMOUNT OF COMPOUND DIFFUSED ACROSS SKIN ([1]; saturated solution in isostearic acid, 48 hours): 6 μg/10 mL | CUMULATIVE AMOUNT OF COMPOUND DIFFUSED ACROSS SKIN ([1]; saturated solution in isostearic acid, 72 hours): 12 μg/10 mL | CUMULATIVE AMOUNT OF COMPOUND DIFFUSED ACROSS SKIN [1, 7]: 0 μg/10 mL | CUMULATIVE AMOUNT OF COMPOUND DIFFUSED ACROSS SKIN [1, 8]: 1 μg/10 mL | CUMULATIVE AMOUNT OF COMPOUND DIFFUSED ACROSS SKIN ([1]; saturated solution in propylene glycol, 48 hours): 4 μg/10 mL | CUMULATIVE AMOUNT OF COMPOUND DIFFUSED ACROSS SKIN ([1]; saturated solution in propylene glycol, 72 hours): 10 μg/10 mL | CUMULATIVE AMOUNT OF COMPOUND DIFFUSED ACROSS SKIN [1, 9]: 0 μg/10 mL | CUMULATIVE AMOUNT OF COMPOUND DIFFUSED ACROSS SKIN [1, 10]: 1 μg/10 mL | CUMULATIVE AMOUNT OF COMPOUND DIFFUSED ACROSS SKIN ([1]; saturated solution in tetraglycol, 48 hours): 3 μg/10 mL | CUMULATIVE AMOUNT OF COMPOUND DIFFUSED ACROSS SKIN ([1]; saturated solution in tetraglycol, 72 hours): 6 μg/10 mL

Nc1ccc(N=Nc2cccc3ccccc23)c(N)c1 [Fat Brown RR]
relative order for membrane diffusion rate ([2]; ranking of excipients): alpha-terpineol>propylene glycol>isostearic acid>tetraglycol | CUMULATIVE AMOUNT OF COMPOUND DIFFUSED ACROSS SKIN [2, 3]: 0 µg/mL | CUMULATIVE AMOUNT OF COMPOUND DIFFUSED ACROSS SKIN ([2]; saturated solution in alpha-terpineol, 6 hours): 168 µg/mL | CUMULATIVE AMOUNT OF COMPOUND DIFFUSED ACROSS SKIN ([2]; saturated solution in alpha-terpineol, 12 hours): 444 µg/mL | CUMULATIVE AMOUNT OF COMPOUND DIFFUSED ACROSS SKIN ([2]; saturated solution in alpha-terpineol, 18 hours): 812 µg/mL | CUMULATIVE AMOUNT OF COMPOUND DIFFUSED ACROSS SKIN [2, 4]: 1162 µg/mL | CUMULATIVE AMOUNT OF COMPOUND DIFFUSED ACROSS SKIN [2, 5]: 0 µg/mL | CUMULATIVE AMOUNT OF COMPOUND DIFFUSED ACROSS SKIN ([2]; saturated solution in isostearic acid, 6 hours): 41 µg/mL | CUMULATIVE AMOUNT OF COMPOUND DIFFUSED ACROSS SKIN ([2]; saturated solution in isostearic acid, 12 hours): 92 µg/mL | CUMULATIVE AMOUNT OF COMPOUND DIFFUSED ACROSS SKIN ([2]; saturated solution in isostearic acid, 18 hours): 169 µg/mL | CUMULATIVE AMOUNT OF COMPOUND DIFFUSED ACROSS SKIN [2, 6]: 262 µg/mL | CUMULATIVE AMOUNT OF COMPOUND DIFFUSED ACROSS SKIN [2, 7]: 0 µg/mL | CUMULATIVE AMOUNT OF COMPOUND DIFFUSED ACROSS SKIN ([2]; saturated solution in propylene glycol, 6 hours): 84 µg/mL | CUMULATIVE AMOUNT OF COMPOUND DIFFUSED ACROSS SKIN ([2]; saturated solution in propylene glycol, 12 hours): 221 µg/mL | CUMULATIVE AMOUNT OF COMPOUND DIFFUSED ACROSS SKIN ([2]; saturated solution in propylene glycol, 18 hours): 445 µg/mL | CUMULATIVE AMOUNT OF COMPOUND DIFFUSED ACROSS SKIN [2, 8]: 677 µg/mL | CUMULATIVE AMOUNT OF COMPOUND DIFFUSED ACROSS SKIN [2, 9]: 0 µg/mL | CUMULATIVE AMOUNT OF COMPOUND DIFFUSED ACROSS SKIN ([2]; saturated solution in tetraglycol, 6 hours): 13 µg/mL | CUMULATIVE AMOUNT OF COMPOUND DIFFUSED ACROSS SKIN ([2]; saturated solution in tetraglycol, 12 hours): 25 µg/mL | CUMULATIVE AMOUNT OF COMPOUND DIFFUSED ACROSS SKIN ([2]; saturated solution in tetraglycol, 18 hours): 39 µg/mL | CUMULATIVE AMOUNT OF COMPOUND DIFFUSED ACROSS SKIN [2, 10]: 52 µg/mL
